We go through eleven compounds from patent publication US20070208021A1, “Phenoxyacetic Acid Derivatives and Drug Comprising The Same” (DAIICHI PHARMACEUTICAL CO., LTD., priority 2004, published 2007).

The target in data set [1] is T1, hPPARγ (Homo sapiens, UniProt P37231).
T1 construct: expressed in transfected cells; host or cells: HEK293T
T1 sequence (P37231 238-503 limits assumed): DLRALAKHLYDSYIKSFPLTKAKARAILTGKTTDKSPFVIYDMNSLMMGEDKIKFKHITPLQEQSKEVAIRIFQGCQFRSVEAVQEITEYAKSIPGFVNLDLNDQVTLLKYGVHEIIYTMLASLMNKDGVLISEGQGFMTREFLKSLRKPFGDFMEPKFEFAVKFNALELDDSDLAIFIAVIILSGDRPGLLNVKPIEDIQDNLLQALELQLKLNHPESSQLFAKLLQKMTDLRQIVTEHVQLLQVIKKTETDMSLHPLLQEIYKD
Kind of data set: GAL4-hPPAR transactivation assay (PPARγ). The conditions noted are these: HEK293T cells, pFA-hPPARγ/GAL4 + pFR-SEAP reporter, about 48 hours. It counts as cell-based. The text has this:
(§1) GAL4-hPPAR Transactivation Assay
(§2) Plasmids for the expression of fusion protein for GAL4 DNA binding region-PPAR ligand binding region, pFA-hPPARα/GAL4 and pFA-hPPARγ/GAL4, were constructed by inserting the LBD cDNA of hPPARα and hPPARγ, respectively, into a commercially-available expression vector (pFA trans-activator plasmid, by STRATAGENE) having a GAL4 DNA binding region (GAL4 DBD) of yeast, under CMV promoter. For the expression of a reporter protein, used were a commercially-available plasmid (pFR-SEAP, by STRATAGENE) having a GAL4 responsive region (GAL4 UAS) in the upstream of cDNA of a secreted alkaline phosphatase (SEAP).
(§3) (b) Cell Culture and Transactivation Assay:
(§4) HEK293T cells were suspended in a high-glucose Dulbecco's modified Eagle's medium (DMEM) containing 10% fetal calf serum (by Hyclone), 100 U/mL penicillin G and […], and seeded in a 24-well cell culture plate in a density of 8×10^4 cells/well. The cells were cultured in a humidified atmosphere of 5% CO2 at 37° C. for 24 hours, and then subjected to transfection using Lipofectamine (by Invitrogen) and Plus reagent (by Invirogen) according to the manufacture's instruction in the absence of serum. Concretely, the cells were incubated in 225 μL of a transfection medium (OPTI-MEM, by Invitrogen) containing 0.48 μL of Lipofectamine, 0.030 μg of pFA-PPAR/GAL4 expression plasmid and 0.13 μg of pFR-SEAP, in a 5% CO2 atmosphere at 37° C. for 5 hours. Next, the same volume of a fresh high-glucose DMEM containing 10% fetal calf serum, 100 U/mL penicillin G, […] streptomycin sulfate and a test compound of two times the designated concentration was added to it, and the cells were incubated for about 48 hours. After the compound was solubilized in DMSO, control cells were incubated along with an equivalent concentration of DMSO. […] After the incubation, the culture supernatant was collected, and using a kit (reporter assay kit—SEAP, by TOYOBO), the SEAP activity was determined according to the manufacturer's instruction. Concretely, the same amount of an intrinsic alkaline phosphatase inhibitor was added to 5 μL of the culture supernatant and incubated at 37° C. for 30 minutes, and then 100 μL of a chemoluminescent substrate (Lumiphos PLUS, by Lumigen) was added thereto and incubated at 37° C. for 15 minutes, and thereafter the luminescence level was determined using a multi-label counter (ARVOsx, by Perkin Elmer). The values obtained as a result of the above operation and the concentrations of the test compound were plotted to obtain the EC50 value.

A short description of data set [2]: Determination of solubility in JP-fluid 1 / JP-fluid 2 (HPLC). The conditions noted are these: thermodynamic from solid, 12 hours or more. Format: physicochemical. On the procedure: Determination of Solubility
One mg of a test compound was put into a test tube, and 1 ml of the first fluid for Japanese Pharmacopoeia Disintegration Test Method (synthetic gastric juice, pH 1.2: hereinafter referred to as JP-fluid 1) or the second fluid for Japanese Pharmacopoeia Disintegration Test Method (synthetic intestinal juice, pH 6.8: hereinafter referred to as JP-fluid 2) was added thereto and shaken, and then statically left at room temperature for 12 hours or more. After thus left, the sample was filtered through a 0.45-μm membrane filter, and the filtrate was suitably diluted with a mixture of DMSO-purified water (1/1) to prepare solutions for solubility determination.
Apart from the above, 1 mg of the test compound was put into a 20-mL messflask, and dissolved in a mixture of DMSO-purified water (1/1) to prepare a standard solution of 50 μg/mL. The standard solution was stepwise diluted to give serial dilutions, and using the dilutions, a calibration curve was formed.
The above-mentioned solutions for solubility determination with the JP-fluid 1 or the JP-fluid 2 were analyzed through HPLC, and based on the calibration curve formed in the above, the solubility of the test compound was computed.
The HPLC condition is as follows:
HPLC System for Alliance Assay (by Waters, USA),
Feed Pump: 2795 separation module,
UV Detector: 2996 photodiode array detector,
Column: ODS-type C18 column (3.5 μm, 3.0 mm ID×30 mm),
Column Temperature: 60° C.,
Mobile Phase A: pH 4.5, 10 mM acetate buffer,
Mobile Phase B: 50% acetic acid-acetonitrile mixture (1/999),
Gradient Condition: mobile phase A/B ratio, 95/5 to 10/90,
Sample Temperature: 25° C.,
Detection Wavelength: maximum absorption wavelength within a range of 220 to 420 nm.

Data set [3] concerns the target T2, hPPARα (Homo sapiens, UniProt Q07869).
T2 construct: expressed in transfected cells; host or cells: HEK293T
T2 sequence (Q07869 239-466 limits assumed): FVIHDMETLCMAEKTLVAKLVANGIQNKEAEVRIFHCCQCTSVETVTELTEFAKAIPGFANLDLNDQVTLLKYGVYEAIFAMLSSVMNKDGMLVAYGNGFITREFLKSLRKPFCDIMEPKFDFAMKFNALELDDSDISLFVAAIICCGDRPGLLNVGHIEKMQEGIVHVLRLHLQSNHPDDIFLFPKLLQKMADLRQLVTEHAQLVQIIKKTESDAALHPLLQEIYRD
Kind of data set: GAL4-hPPAR transactivation assay (PPARα). It counts as cell-based. The conditions noted are these: HEK293T cells, pFA-hPPARα/GAL4 + pFR-SEAP reporter, about 48 hours.
Text: as §1, §2, §3, §4

A short description of data set [4]: Lipid solubility: octanol / pH 7.4 phosphate buffer partition coefficient. It counts as physicochemical. The conditions noted are these: n-octanol / pH 7.4 isotonic phosphate buffer, read-out: log D (pH 7.4). The method, then:
An equi-volume mixture of n-octanol (hereinafter referred to as octanol) and pH 7.4 isotonic phosphate buffer (hereinafter referred to as aqueous phase) was shaken in a suitable vessel, then statically left for 24 hours or more, and the upper layer (water-saturated octanol) and the lower layer (octanol-saturated water) were separately collected.
1 mg of a test compound was put into a test tube, and 5 ml of the water-saturated octanol was added thereto, ultrasonicated for 10 minutes and then stirred for about 30 seconds. In case where an insoluble substance was seen, then the liquid was filtered through a 0.45-μm membrane filter. 2 mL of the water-saturated octanol solution of the test compound was taken into a test tube, 2 mL of the octanol-saturated water was added thereto and shaken for 30 minutes. Then, this was centrifuged to separate into an upper layer (octanol phase) and a lower layer (aqueous phase), which were then separately collected.
The octanol phase and the aqueous phase were suitably diluted with DMSO, and the concentration of the test compound therein was determined through UV-detection HPLC or MS-detection HPLC.
From the concentration measured in each phase and the dilution ratio of each phase, the partition coefficient was derived through computation.
In case where the solubility in water of the test compound is estimated to be high, then the test compound is dissolved in the octanol-saturated water and then the water-saturated octanol is added thereto, shaken and centrifuged, and the upper layer (octanol phase) and the lower layer (aqueous phase) are separately collected to determine the concentration of the test compound.
The details of the HPLC apparatus and its operation condition are as follows: […]

For data set [5] the following is noted: in vivo; cited from earlier work.
The conditions of data set [6]: patients associated with type II diabetes; cited from earlier work.
For data set [7] the following is noted: db/db mice, as compared with pioglitazone; cited from earlier work.
[8] abbreviates: fassgf or other biorelevant, synthetic intestinal juice, pH 6.8, room temperature, read-out: Solubility JP-fluid 2.
Where [9] appears, read: simulated gastric fluid, synthetic gastric juice, pH 1.2, room temperature, read-out: Solubility JP-fluid 1.

Values after ≈ are worked out from the molar mass of the structure shown. Where a name gives a salt, the structure may show the parent alone. Read-outs that look alike come from different tables or passages of the source.

As a reminder, the EC50 is the midpoint of the concentration-response curve. For orientation: solubility means the concentration that dissolves in the medium under given conditions. With `Cc1cc(CN(Cc2nccs2)Cc2nc(-c3ccccc3)oc2C)cc(C)c1OC(C)(C)C(=O)O` [Example 16-(2), 2-[2,6-Dimethyl-4-[[(5-methyl-2-phenyloxazol-4-ylmethyl)thiazol-2-ylmethylamino]methyl]phenoxy]-2-methylpropanoic acid], the EC50 in data set [1] was determined as 8.8 nM; in data set [3], 2.4 nM. Moreover, the solubility was 0.48 mg/mL (≈ 949 µM) in data set [2] (setting [8]) and greater than 0.49 mg/mL in data set [2] (setting [9]). The logD in data set [4] amounted to 2.6.

As to `Cc1noc(CN(Cc2cc(C)c(OC(C)(C)C(=O)O)c(C)c2)Cc2nc(-c3ccccc3)oc2C)n1` [Example 19-(3), 2-[2,6-Dimethyl-4-[[(3-methyl-[1,2,4]oxadiazol-5-ylmethyl)-(5-methyl-2-phenyloxazol-4-ylmethyl)amino]methyl]-phenoxy]-2-methylpropanoic acid], the EC50 worked out at 6.9 nM in data set [1] and 2.7 nM in data set [3]. In addition, the solubility is greater than 0.71 mg/mL in data set [2] (setting [8]) and 0.65 mg/mL (≈ 1290 µM) in data set [2] (setting [9]). Besides, the logD in data set [4] came out at 1.8.

For `Cc1oc(-c2cccc(Br)c2)nc1CN(Cc1ccc(OC(C)(C)C(=O)O)cc1)Cc1cscn1` [Example 5-(2), 2-[4-[[[2-(3-Bromophenyl)-5-methyloxazol-4-ylmethyl]thiazol-4-ylmethylamino]methyl]phenoxy]-2-methylpropionic acid hydrochloride], the values for the EC50 in data set [1] and in data set [3] were 220 nM and 2.6 nM, respectively. For the same compound, the solubility in data set [2] (setting [8]) was 0.68 mg/mL; in data set [2] (setting [9]), 0.52 mg/mL. In addition, the logD in data set [4] stood at 2.3.

In the case of `Cc1cc(CN(Cc2ncco2)Cc2nc(-c3ccccc3)oc2C)cc(C)c1OC(C)(C)C(=O)O` [Example 13-(2), 2-[2,6-Dimethyl-4-[[(5-methyl-2-phenyloxazol-4-ylmethyl)oxazol-2-ylmethylamino]methyl]phenoxy]-2-methylpropanoic acid], the figures for the EC50 in data set [1] and in data set [3] were 5.5 nM and 3.7 nM, respectively. Further, the solubility in data set [2] (setting [8]) and in data set [2] (setting [9]) was greater than 0.87 mg/mL throughout. Also, in data set [4], the logD came out at 1.8.

With `Cc1nnc(CN(Cc2cc(C)c(OC(C)(C)C(=O)O)c(C)c2)Cc2nc(-c3ccccc3)oc2C)o1` [Example 18-(2), 2-[2,6-Dimethyl-4-[[(5-methyl-[1,3,4]oxadiazol-2-ylmethyl)-(5-methyl-2-phenyloxazol-4-ylmethyl)amino]methyl]phenoxy]-2-methylpropanoic acid], the EC50 worked out at 33 nM in data set [1] and 2.9 nM in data set [3]. Besides, the solubility in data set [2] (setting [8]) and in data set [2] (setting [9]) was greater than 0.71 mg/mL each time. In data set [4], the logD is 1.1.

On to `Cc1cc(CN(Cc2ccco2)Cc2sc(-c3ccc(C(F)(F)F)cc3)nc2C)ccc1OC(C)(C)C(=O)O` [SKB-compd, reference compound], for which the EC50 worked out at 48 nM in data set [1] and 44 nM in data set [3]. The values for the solubility in data set [2] (setting [8]) and in data set [2] (setting [9]) were 0.01 mg/mL (≈ 17.9 µM) and 0.24 mg/mL (≈ 430 µM), respectively. Further, the logD in data set [4] came to 4.4.

For the compound `Cc1oc(-c2ccc(-c3ccccc3)cc2)nc1CCOc1ccc(OC(C)(C)C(=O)O)cc1` [LY465608], in data set [5], the “high-density lipoprotein (HDL)” value is listed as “dose-dependently increases” and the plasma triglyceride result is “lowers”.

With `Cc1oc(-c2cccc(Br)c2)nc1CN(Cc1ccncc1)Cc1ccc(OC(C)(C)C(=O)O)cc1` [Example 4-(2), 2-[4-[[[2-(3-Bromophenyl)-5-methyloxazol-4-ylmethyl]pyridin-4-ylmethylamino]methyl]phenoxy]-2-methylpropionic acid], the EC50 in data set [1] was 180 nM; in data set [3] it was 4.8 nM. For the same compound, the solubility in data set [2] (setting [8]) was less than 0.003 mg/mL; in data set [2] (setting [9]), 0.93 mg/mL (≈ 1690 µM). Besides, the logD in data set [4] was determined as 2.5.

As for `CCc1ccc(CCOc2ccc(CC3SC(=O)NC3=O)cc2)nc1` (centres unmarked) [Pioglitazone, pioglitazone], the “body weight increase or fluid accumulation” value in data set [6] is on record as “observed in some patients”.

As to `Cc1oc(-c2cccc(Br)c2)nc1CN(Cc1ccc(OC(C)(C)C(=O)O)cc1)Cc1nccs1` [Example 1-(2), 2-[4-[[[2-(3-Bromophenyl)-5-methyloxazol-4-ylmethyl]thiazol-2-ylmethylamino]methyl]phenoxy-2-methylpropionic acid hydrochloride], the half-maximal effective concentration (EC50) was 590 nM in data set [1] and 13 nM in data set [3]. Also, the solubility in data set [2] (setting [8]) was greater than 1 mg/mL; in data set [2] (setting [9]) it was 0.49 mg/mL. For the same compound, in data set [4], the logD stood at 2.7.

With `COc1ccc(CC2SC(=O)NC2=O)cc1C(=O)NCc1ccc(C(F)(F)F)cc1` (centres unmarked) [KRP-297], the body weight increase result in data set [7] is recorded as “significantly inhibits the body weight increase”.
